Results reported in patent US20240317752A1, “6-SUBSTITUTED-9H-PURINE DERIVATIVES AND RELATED USES” (Black Diamond Therapeutics, Inc., priority 2021, published 2024).

The molecules below were run against T1, BaF3 BRAF-KIAA1549 fusion cells (Homo sapiens, UniProt P15056) (assay: BaF3 BRAF-KIAA1549 fusion cell proliferation assay (CellTiterGlo)). Settings: 96 hours incubation, potency code.
T1 construct: The BRAF-KIAA1549 fusion mutant was subcloned into pMXs-IRES-Blasticidin (RTV-016, Cell Biolabs, San Diego, CA); fused on or other part: Q9HCM3 (UPF0606 protein KIAA1549)
T1 sequence (P15056 whole entry, change not shown, the tested form may be a part): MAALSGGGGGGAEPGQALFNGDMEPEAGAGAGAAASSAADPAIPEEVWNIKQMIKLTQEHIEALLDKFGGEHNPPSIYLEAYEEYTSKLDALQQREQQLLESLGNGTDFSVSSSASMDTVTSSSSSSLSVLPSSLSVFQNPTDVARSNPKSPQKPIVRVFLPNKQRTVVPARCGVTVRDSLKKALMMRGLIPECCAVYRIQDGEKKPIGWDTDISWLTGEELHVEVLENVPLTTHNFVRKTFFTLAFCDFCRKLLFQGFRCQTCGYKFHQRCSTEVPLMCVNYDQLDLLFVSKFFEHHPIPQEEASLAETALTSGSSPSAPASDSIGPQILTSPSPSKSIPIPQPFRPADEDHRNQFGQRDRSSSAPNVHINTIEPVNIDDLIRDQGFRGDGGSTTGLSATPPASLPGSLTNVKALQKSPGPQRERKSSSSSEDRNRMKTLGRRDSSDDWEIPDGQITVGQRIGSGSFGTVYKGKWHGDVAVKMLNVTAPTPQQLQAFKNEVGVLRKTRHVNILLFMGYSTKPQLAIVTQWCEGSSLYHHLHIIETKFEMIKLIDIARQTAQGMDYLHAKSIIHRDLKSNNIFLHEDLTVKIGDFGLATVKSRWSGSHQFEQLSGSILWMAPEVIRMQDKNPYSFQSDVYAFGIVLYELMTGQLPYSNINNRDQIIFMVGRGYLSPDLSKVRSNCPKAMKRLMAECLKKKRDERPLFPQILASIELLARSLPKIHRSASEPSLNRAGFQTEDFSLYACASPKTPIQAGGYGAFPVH
Assay type: cell-based
Procedure, shortened: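 BaF3 cells stably transduced with a BRAF-KIAA1549 fusion, blasticidin-selected and growing without IL-3, were treated with compound for 96 h in RPMI/10% heat-inactivated FBS. Viability read as ATP content by CellTiterGlo luminescence, normalised to DMSO-treated cells. IC50 by Levenberg-Marquardt fit.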

| Compound | GI50 |
| --- | --- |
| Cc1ccc(NC(=O)c2cc(C(F)(F)F)ccn2)cc1Nc1nccnc1-c1ncnc2[nH]cnc12 [IA-120, N-(3-(3-(9H-purin-6-yl)pyrazin-2-ylamino)-4-methylphenyl)-4-(trifluoromethyl)picolinamide] | 20 to 100 nM |
| Cc1ccc(NC(=O)c2cc(C(F)(F)F)ccn2)cc1Nc1nnccc1-c1ncnc2[nH]cnc12 [IA-121, N-(3-((4-(9H-purin-6-yl)pyridazin-3-yl)amino)-4-methylphenyl)-4-(trifluoromethyl)picolinamide] | ≥ 500 nM |
| COc1nc2c(-c3nccnc3Nc3cc(NC(=O)c4cc(C(F)(F)F)ccn4)ccc3C)ncnc2[nH]1 [IA-122, N-(3-(3-(8-methoxy-9H-purin-6-yl)pyrazin-2-ylamino)-4-methylphenyl)-4-(trifluoromethyl)picolinamide] | 20 to 100 nM |
| COc1nc2c(-c3cccnc3Nc3cc(NC(=O)c4cc(C(F)(F)F)ccn4)ccc3C)ncnc2[nH]1 [IA-123, N-(3-(3-(8-methoxy-9H-purin-6-yl)pyridin-2-ylamino)-4-methylphenyl)-4-(trifluoromethyl)picolinamide] | 20 to 100 nM |
| Cc1ccc(NC(=O)c2cc(C(F)(F)F)ccn2)cc1Nc1ncccc1-c1ncnc2[nH]c(OCCN(C)C)nc12 [IA-124, N-(3-(3-(8-(2-(dimethylamino)ethoxy)-9H-purin-6-yl)pyridin-2-ylamino)-4-methylphenyl)-4-(trifluoromethyl)picolinamide] | 20 to 100 nM |
| Cc1ccc(NC(=O)c2cc(C(F)(F)F)ccn2)cc1Nc1ncccc1-c1ncnc2[nH]c(OCCO)nc12 [IA-125, N-(3-(3-(8-(2-hydroxyethoxy)-9H-purin-6-yl)pyridin-2-ylamino)-4-methylphenyl)-4-(trifluoromethyl)picolinamide] | 20 to 100 nM |
| Cc1nc2c(-c3cccnc3Nc3cc(NC(=O)c4cc(C(F)(F)F)ccn4)ccc3C)ncnc2[nH]1 [IA-126, N-(4-methyl-3-((3-(8-methyl-9H-purin-6-yl)pyridin-2-yl)amino)phenyl)-4-(trifluoromethyl)picolinamide] | < 20 nM |
| Cc1nc2c(-c3cccnc3Nc3cc(NC(=O)c4ccnc(C(C)(C)C#N)c4)ccc3C)ncnc2[nH]1 [IA-127, 2-(2-cyanopropan-2-yl)-N-(4-methyl-3-((3-(8-methyl-9H-purin-6-yl)pyridin-2-yl)amino)phenyl)isonicotinamide] | < 20 nM |
| Cc1nc2c(-c3cccnc3Nc3cc(NC(=O)c4cc(C(F)(F)F)c(F)cn4)ccc3C)ncnc2[nH]1 [IA-128, 5-fluoro-N-(4-methyl-3-((3-(8-methyl-9H-purin-6-yl)pyridin-2-yl)amino)phenyl)-4-(trifluoromethyl)picolinamide] | < 20 nM |
| Cc1nc2c(-c3cccnc3Nc3cc(NC(=O)c4cc(C(F)(F)F)c(OCCO)cn4)ccc3C)ncnc2[nH]1 [IA-129, 5-(2-hydroxyethoxy)-N-(4-methyl-3-((3-(8-methyl-9H-purin-6-yl)pyridin-2-yl)amino)phenyl)-4-(trifluoromethyl)picolinamide] | < 20 nM |
| Cc1nc2c(-c3cccnc3Nc3cc(NC(=O)c4cc(C(O)C(F)(F)F)ccn4)ccc3C)ncnc2[nH]1 (centres unmarked) [IA-130, N-(4-methyl-3-((3-(8-methyl-9H-purin-6-yl)pyridin-2-yl)amino)phenyl)-4-(2,2,2-trifluoro-1-hydroxyethyl)picolinamide] | < 20 nM |
| Cc1ccc(NC(=O)CC2CCCNCC2)cc1Nc1ncccc1-c1ncnc2[nH]cnc12 (centres unmarked) [IA-131, N-(3-(3-(9H-purin-6-yl)pyridin-2-ylamino)-4-methylphenyl)-2-(azepan-4-yl)acetamide] | ≥ 500 nM |
| Cc1ccc(NC(=O)CC2CCCN(C)CC2)cc1Nc1ncccc1-c1ncnc2[nH]cnc12 (centres unmarked) [IA-132, N-(3-(3-(9H-purin-6-yl)pyridin-2-ylamino)-4-methylphenyl)-2-(1-methylazepan-4-yl)acetamide] | ≥ 500 nM |
| Cc1ccc(NC(=O)CN2CCCOCC2)cc1Nc1ncccc1-c1ncnc2[nH]cnc12 [IA-133, N-(3-((3-(9H-purin-6-yl)pyridin-2-yl)amino)-4-methylphenyl)-2-(1,4-oxazepan-4-yl)acetamide] | ≥ 500 nM |
